Measurements published in patent US5565200A, “Pharmaceutical preparations derived from korean mistletoe” (priority 1995, dated 1996).

How the values were obtained:
[1] = test system: C3H Mammary adenocarcinoma 16/C; test: Growth of subcutaneous transplants of C3H mammary adenocarcinoma 16/C in B6C3F1 female mice; assay type: in vivo; conditions: 98 mg/kg, i.p., qd (1,7,14,21)
Text: Anticancer activities of n-T4GEN were studied in animals bearing subcutaneous transplants of C3H Mammary adenocarcinoma 16/C. This tumor is maintained as a lung passed tumor in C3H female mice. In this example, tumors (1×10^6 cells) were transplanted (S.C.) in 18-20 g B6C3F^1 hybrid female mice. On the following day, the tumor bearing animals were randomized and separated into different treatment groups (10 mice per group). There were 15 animals in the control group who received only physiological saline during the treatment periods. […] Animals were weighed on days 5, 9 and 14 to assess toxic effects. Tumors were measured on days 21, 28 post transplants and the results are represented as tumor weights using formula [formula]

[2] = Weight change of tumor-bearing mice to assess toxic effects; assay type: in vivo; conditions: 98 mg/kg, i.p., qd (1,7,14,21)
Text: Anticancer activities of n-T4GEN were studied in animals bearing subcutaneous transplants of C3H Mammary adenocarcinoma 16/C. This tumor is maintained as a lung passed tumor in C3H female mice. In this example, tumors (1×10^6 cells) were transplanted (S.C.) in 18-20 g B6C3F^1 hybrid female mice. On the following day, the tumor bearing animals were randomized and separated into different treatment groups (10 mice per group). There were 15 animals in the control group who received only physiological saline during the treatment periods. The treatments (i.p.) were started 48 hours after the transplants and given for a duration of 14 days (daily single injections). Animals were weighed on days 5, 9 and 14 to assess toxic effects. Tumors were measured on days 21, 28 post transplants and the results are represented as tumor weights using formula [formula]

O=c1[nH]cc(F)c(=O)[nH]1 [5Fluorouracil]
Tumor Free Animals (day 93) [1]: 0/6 | Tumor Inhibition % [1]: 100% | Tumor Wts (day 21) [1]: 0.00 | Δ Wts (g) (day 14) [2]: +1.77 g
